Measurements taken from US20250215030A1, “STAT MODULATORS AND USES THEREOF” (Recludix Pharma, Inc., priority 2022, published 2025).

Columns and labels:
pSTAT6 (pY641-STAT6) = target: T1, pSTAT6 (pY641-STAT6) (Homo sapiens, UniProt P42226); experiment: MSD-pSTAT-PBMC Assay (pSTAT6, IL-4 stimulated); assay type: cell-based; settings: compound 3 hrs, then 1 ng/mL IL-4 for 10 min
T1 construct: host or cells: cryopreserved PBMC
T1 sequence (P42226 1-847): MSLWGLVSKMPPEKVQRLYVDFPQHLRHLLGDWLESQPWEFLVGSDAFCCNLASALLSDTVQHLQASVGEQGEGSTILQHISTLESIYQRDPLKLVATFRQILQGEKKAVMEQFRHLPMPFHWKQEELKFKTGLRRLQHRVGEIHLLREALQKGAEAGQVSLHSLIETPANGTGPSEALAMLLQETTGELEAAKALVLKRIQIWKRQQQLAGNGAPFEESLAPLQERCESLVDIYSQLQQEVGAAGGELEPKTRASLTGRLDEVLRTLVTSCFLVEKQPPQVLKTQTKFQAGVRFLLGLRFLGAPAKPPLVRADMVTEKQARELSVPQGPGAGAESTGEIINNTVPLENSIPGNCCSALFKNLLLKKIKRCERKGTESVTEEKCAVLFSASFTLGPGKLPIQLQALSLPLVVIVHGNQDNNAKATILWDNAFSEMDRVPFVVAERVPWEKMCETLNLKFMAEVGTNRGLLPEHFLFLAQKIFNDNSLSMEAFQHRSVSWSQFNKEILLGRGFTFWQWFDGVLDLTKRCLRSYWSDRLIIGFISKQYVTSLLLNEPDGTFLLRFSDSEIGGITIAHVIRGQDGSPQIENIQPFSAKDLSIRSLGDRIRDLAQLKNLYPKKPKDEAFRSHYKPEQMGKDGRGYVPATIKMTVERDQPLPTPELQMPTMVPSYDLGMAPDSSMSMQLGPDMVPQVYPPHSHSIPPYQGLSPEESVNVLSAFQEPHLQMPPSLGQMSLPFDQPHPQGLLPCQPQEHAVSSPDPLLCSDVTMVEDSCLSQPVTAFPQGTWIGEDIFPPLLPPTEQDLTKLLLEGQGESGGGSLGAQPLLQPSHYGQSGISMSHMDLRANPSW
From the text: Cryopreserved Peripheral Blood Mononuclear Cells (PBMC) are from AllCells. Recombinant Human IL-4 and IL-6 are from Peprotech. Mouse monoclonal anti-STAT3 antibody, rabbit monoclonal anti-pY705-STAT3 antibody, rabbit monoclonal Anti-pY641-STAT6 antibody, and lysis buffer are from Cell Signaling Technology (CST). Mouse monoclonal anti-STAT6 antibody is from BioLegend. Assay plates, blocker, and anti-rabbit secondary antibody are from Meso Scale Discovery (MSD).
Cryopreserved PBMCs were thawed out and allowed to recover overnight in IMDM+10% heat-inactivated FBS prior to plating 50,000 (STAT3) or 25,000 (STAT6) cells per well in 96-well U-bottom tissue culture plates. Cells were treated with compound for 3 hrs, then stimulated with 10 ng/mL IL-6 (STAT3) or 1 ng/mL IL-4 (STAT6) for 10 min. Cells were then spun down and washed with ice-cold PBS prior to lysing the cell pellet with 1× lysis buffer (CST) with 1× HALT protease and phosphatase inhibitor cocktail (Thermo). Lysates were transferred to and incubated overnight at 4° C. with shaking in QuickPlex 96-well high bind assay plates (MSD) pre-coated overnight with 30 μL per well of 0.6 μg/mL mouse monoclonal anti-STAT3 antibody (STAT3) or 2 μg/mL mouse monoclonal anti-STAT6 antibody (STAT6) in 1×PBS, and pre-blocked for 1 hour with 3% Blocker-A (MSD). Captured protein in the assay plates were then washed and probed with 25 μL per well of 0.25 μg/ml rabbit monoclonal anti-pY705-STAT3 antibody (STAT3) or 0.18 μg/ml rabbit monoclonal Anti-pY641-STAT6 antibody (STAT6) in 1% Blocker-A for 1 hour at room temperature with shaking, then washed and probed with 25 ul per well of 1 ug/mi Sulfo-TAG Labeled Goat Anti-Rabbit Antibody (MSD) in 1% Blocker-A for 1 hour at room temperature with shaking. Assay plates were then washed and 150 μL of 1× Read Buffer-T (MSD) was added to each well prior to reading on an SQ120 MSD Plate Reader. Assay signal from each sample was subtracted by the signal from unstimulated control wells and normalized to DMSO control wells. IC50 values were calculated using Graph Pad Prism Dose-Response Nonlinear Regression with variable slope. For both pSTAT3 and pSTAT6 A=≤100 nM; B=>100-1000 nM; C=>1000-3000 nM; and D=>3 μM.

pSTAT3 (pY705-STAT3) = target: T2, pSTAT3 (pY705-STAT3) (Homo sapiens, UniProt P40763); experiment: MSD-pSTAT-PBMC Assay (pSTAT3, IL-6 stimulated); assay type: cell-based; settings: PBMC, compound 3 hrs, then 10 ng/mL IL-6 for 10 min; MSD pY705-STAT3; read-out: pSTAT3
T2 construct: host or cells: cryopreserved PBMC
Method in brief: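 Human PBMCs (50,000 cells/well for STAT3, 25,000 for STAT6) treated with compound 3 h, then stimulated 10 min with 10 ng/mL IL-6 or 1 ng/mL IL-4. Lysate pSTAT3 (pY705) or pSTAT6 (pY641) measured by MSD sandwich electrochemiluminescence. Signal minus unstimulated, normalized to DMSO; IC50 by variable-slope nonlinear regression.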

T2 sequence (P40763 whole entry): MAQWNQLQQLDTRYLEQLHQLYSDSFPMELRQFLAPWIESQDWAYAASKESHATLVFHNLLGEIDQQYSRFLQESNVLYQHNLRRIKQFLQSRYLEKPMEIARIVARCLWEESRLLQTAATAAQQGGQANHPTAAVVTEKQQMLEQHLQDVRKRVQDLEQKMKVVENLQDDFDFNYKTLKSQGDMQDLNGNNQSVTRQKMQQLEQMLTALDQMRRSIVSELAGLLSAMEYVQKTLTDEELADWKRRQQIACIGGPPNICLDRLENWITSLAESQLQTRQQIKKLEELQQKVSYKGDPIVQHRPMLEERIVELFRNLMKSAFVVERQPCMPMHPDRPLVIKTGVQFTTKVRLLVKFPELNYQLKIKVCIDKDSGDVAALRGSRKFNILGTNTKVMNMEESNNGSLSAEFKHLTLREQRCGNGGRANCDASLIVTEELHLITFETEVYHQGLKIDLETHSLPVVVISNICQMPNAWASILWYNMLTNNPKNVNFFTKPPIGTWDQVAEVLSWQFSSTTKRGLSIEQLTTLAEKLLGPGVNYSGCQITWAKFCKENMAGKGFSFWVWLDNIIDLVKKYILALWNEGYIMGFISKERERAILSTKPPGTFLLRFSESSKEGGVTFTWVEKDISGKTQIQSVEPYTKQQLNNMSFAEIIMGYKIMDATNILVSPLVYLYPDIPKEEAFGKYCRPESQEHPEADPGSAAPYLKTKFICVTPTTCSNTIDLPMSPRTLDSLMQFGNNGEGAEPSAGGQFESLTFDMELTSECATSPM

Row | Compound | IC50 (pSTAT6 (pY641-STAT6)) [nM] | IC50 (pSTAT3 (pY705-STAT3)) [nM]
1 | CC(C)(C)C(=O)OCOP(=O)(OCOC(=O)C(C)(C)C)C(F)(F)c1ccc2sc(C(=O)N[C@H]3C[C@@H]4C[C@@H]4C[C@H]4CC[C@@H](C(=O)N5C[C@@H](C#N)[C@H](c6ccccc6)C5)N4C3=O)cc2c1 (relative stereo) [Compound 139, ((((2-(((3S,6S,7aR, 8aS,9aR)-3-((rel-trans)-3-cyano-4-phenyl-pyrrolidine-1-carbonyl)-5-oxodecahydro-1H-cyclopropa [d]pyrrolo[1,2-a]azocin-6-yl)carbamoyl)benzo[b]thiophen-5-yl)difluoro-methyl)phosphoryl)bis(oxy)) bis(methylene) bis(2,2-dimethylpro-panoate)] | < 100 | < 100
2 | CC(C)(C)C(=O)OCOP(=O)(OCOC(=O)C(C)(C)C)[C@@H](F)c1ccc2sc(C(=O)N[C@H]3C[C@@H]4C[C@@H]4C[C@H]4CC[C@@H](C(=O)N5CC(C(=O)N6CCOCC6)C5)N4C3=O)cc2c1 (single isomer, unassigned) [Compound 182, ((((S) or (R)-fluoro(2-(((3S,6S,7aS, 8aR,9aR)-3-(3-(morpholine-4-carbonyl)azetidine-1-carbonyl)-5-oxodecahydro-1H-cyclopropa[d]pyrrolo[1,2-a]azocin-6-yl)carbamoyl)benzo[b]thiophen-5-yl)methyl)phosphoryl)bis(oxy)) bis(methylene) bis(2,2-dimethyl-propanoate)] | > 3000 | < 100
3 | CC(C)(C)C(=O)OCOP(=O)(OCOC(=O)C(C)(C)C)[C@@H](F)c1ccc2sc(C(=O)N[C@H]3C[C@@H]4C[C@@H]4C[C@H]4CC[C@@H](C(=O)N5CC(C(=O)N6CCOCC6)C5)N4C3=O)cc2c1 (single isomer, unassigned) [Compound 183, ((((R) or (S)-fluoro(2-(((3S,6S,7aS, 8aR,9aR)-3-(3-(morpholine-4-carbonyl)azetidine-1-carbonyl)-5-oxodecahydro-1H-cyclopropa[d]pyrrolo[1,2-a]azocin-6-yl)carbamoyl)benzo[b]thiophen-5-yl)methyl)phosphoryl)bis(oxy)) bis(methylene) bis(2,2-dimethyl-propanoate)] | 100 to 1000 | < 100
4 | CC(C)(CO)C(=O)SCCOP(=O)(OCCSC(=O)C(C)(C)CO)C(F)(F)c1ccc2sc(C(=O)N[C@H]3C[C@@H]4C[C@@H]4C[C@H]4CC[C@@H](C(=O)N5CC(C(=O)N6CCOCC6)C5)N4C3=O)cc2c1 [Compound 131, S,S′-((((difluoro(2-(((3S,6S,7aS, 8aR,9aR)-3-(3-(morpholine-4-carbonyl)azetidine-1-carbonyl)-5-oxodecahydro-1H-cyclopropa[d]pyrrolo[1,2-a]azocin-6-yl)carbamoyl)benzo[b]thiophen-5-yl)methyl)phosphoryl)bis(oxy))bis(ethane-2,1-diyl)) bis(3-hydroxy-2,2-dimethyl-propane-thioate)] | > 3000 | 100 to 1000
5 | CC(C)(CO)C(=O)SCCOP(=O)(Cc1ccc2sc(C(=O)N[C@H]3C[C@@H]4C[C@@H]4C[C@H]4CC[C@@H](C(=O)N5CC(C(=O)N6CCOCC6)C5)N4C3=O)cc2c1)OCCSC(=O)C(C)(C)CO [Compound 133, S,S′-(((((2-(((3S,6S,7aS, 8aR,9aR)-3-(3-(morpholine-4-carbonyl)azetidine-1-carbonyl)-5-oxodecahydro-1H-cyclopropa[d]pyrrolo[1,2-a]azocin-6-yl)carbamoyl)benzo[b]thiophen-5-yl)methyl)phosphoryl)bis(oxy))bis(ethane-2,1-diyl)) bis(3-hydroxy-2,2-dimethyl-propane-thioate] | > 3000 | > 3000
6 | O=C(OCOP(=O)(Cc1ccc2sc(C(=O)N[C@H]3C[C@H]4C[C@H]4C[C@H]4CC[C@@H](C(=O)N5CC(c6cccnc6)C5)N4C3=O)cc2c1)OCOC(=O)OC1CCOCC1)OC1CCOCC1 [Compound 135, ((((2-(((3S,6S,7aR, 8aS,9aR)-5-oxo-3-(3-(pyridin-3-yl)azetidine-1-carbonyl)decahydro-1H-cyclopropa[d]pyrrolo[1,2-a]azocin-6-yl)carbamoyl)benzo[b]thiophen-5-yl)methyl)phosphoryl)bis(oxy)) bis(methylene) bis(tetrahydro-2H-pyran-4-yl) bis(carbonate)] | > 3000 | < 100
7 | CC(C)(O)CC(=O)SCCOP(=O)(OCCSC(=O)CC(C)(C)O)C(F)(F)c1ccc2sc(C(=O)NC3CC4CC4CC4CCC(C(=O)N5CC(n6ccnc6)C5)N4C3=O)cc2c1 [Compound 136, S,S′-(((((2-(((3S,6S,7aS, 8aR,9aR)-3-(3-(1H-imidazol-1-yl)azetidine-1-carbonyl)-5-oxodecahydro-1H-cyclopropa[d]pyrrolo[1,2-a]azocin-6-yl)carbamoyl)benzo[b]thiophen-5-yl)difluoro-methyl)phosphoryl)bis(oxy))bis (ethane-2,1-diyl))bis(3-hydroxy-3-methylbutane thioate)] | > 3000 | 1000 to 3000
8 | CC(C)(CO)C(=O)SCCOP(=O)(OCCSC(=O)C(C)(C)CO)C(F)(F)c1ccc2sc(C(=O)N[C@H]3C[C@@H]4C[C@@H]4C[C@H]4CC[C@@H](C(=O)N5CC(n6ccnc6)C5)N4C3=O)cc2c1 [Compound 137, S,S′-(((((2-(((3S,6S,7aS, 8aR,9aR)-3-(3-(1H-imidazol-1-yl)azetidine-1-carbonyl)-5-oxodecahydro-1H-cyclopropa[d]pyrrolo[1,2-a]azocin-6-yl)carbamoyl)benzo[b]thiophen-5-yl)difluoro-methyl)phosphoryl)bis (oxy))bis(ethane-2,1-diyl))bis(3-hydroxy-2,2-dimethylpro-panethioate)] | > 3000 | 1000 to 3000
9 | CCCC(=O)SCCOP(=O)(OCCSC(=O)C(C)(C)C)C(F)(F)c1ccc2sc(C(=O)N[C@H]3C[C@@H]4C[C@@H]4C[C@H]4CC[C@@H](C(=O)N5CC(C(=O)N6CCOCC6)C5)N4C3=O)cc2c1 (stereo partly drawn) [Compound 138, S-(2-(((difluoro(2-(((3S,6S,7aS, 8aR,9aR)-3-(3-(morpholine-4-carbonyl)azetidine-1-carbonyl)-5-oxodecahydro-1H-cyclopropa [d]pyrrolo[1,2-a]azocin-6-yl)carbamoyl)benzo [b]thiophen-5-yl)methyl)(2-(pivaloylthio)ethoxy)phosphoryl)oxy)ethyl) butanethioate] | 1000 to 3000 | < 100
10 | CC(C)(C)C(=O)OCOP(=O)(OCOC(=O)C(C)(C)C)C(F)(F)c1ccc2sc(C(=O)N[C@H]3C[C@H]4C[C@H]4C[C@H]4CC[C@@H](C(=O)N5C[C@@H](C#N)[C@H](c6ccccc6)C5)N4C3=O)cc2c1 [Compound 140, ((((2-(((3S,6S,7aR, 8aS,9aR)-3-((3S,4R)-3-cyano-4-phenyl-pyrrolidine-1-carbonyl)-5-oxodecahydro-1H-cyclopropa [d]pyrrolo[1,2-a]azocin-6-yl)carbamoyl)benzo[b]thiophen-5-yl)difluoromethyl)phosphoryl)bis(oxy)) bis(methylene) bis(2,2-dimethylpro-panoate)] | < 100 | < 100
